This is an account of results in the supplement of paper PMC11208160.
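Further: IS621 bridge recombinase in Escherichia coli cells against a fixed T5 target plasmid.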

The nature of the data set: recombinant UMI read abundance after kanamycin selection (control-corrected) (log10(CPM+1)); higher = more efficient recombination; extreme values may be limits of the assay; sequences stand for … in AGTGCAGAGAAAATCGGCCAGTTTTCTCTGCCTGCAGTCCGCATGCCGTGGGACCCCTTGGGTTCTAACCTGTTGCCTAGATTTATGCAGCGGACTGCCTTTCTCCCAAAGTGATAAACCGG…AGGTTGGTTTCACT; site = the 11-nt donor. An outline of the steps: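 Sequencing read counts were converted to CPM, averaged over two replicates and scaled by control-derived factors. Results are given as log10(CPM+1). The reads covered the donor–target junction of recombinant UMIs from a pooled Escherichia coli screen of donor and donor-binding-loop pairs for the IS621 bridge recombinase.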
Take “CGTGGGACATGGACCGGTTTTCCCGGTAATCCGTATTTGTT (site CGTGGAACTAA)”: the “recombinant UMI read abundance (log10)” value was 1.86.
As for “CGTGGGACATGGACCGGTTTTCCCGGTAATCCGTATTTGTT (site CGTGGCACTAA)”, the “recombinant UMI read abundance (log10)” value was 0.0102.
As for “CGTGGGACATGGACCGGTTTTCCCGGTAATCCGTATTTGTT (site CGTGGGACTAA)”, the figure is 1.79; as for “CGTGGGACATGGACCGGTTTTCCCGGTAATCCGTATTTGTT (site CGTGGTACTAA)”, 0.
As for “CGTGGTTCATGGACCGGTTTTCCCGGTAATCCGTATTTGCG (site CGTGGTTCTCG)”, the figure is 2.1.
The same measure for “CGTGTAACATGGACCGGTTTTCCCGGTAATCCGTATTTGCG (site CGTGTAACTCG)”: 1.78; for “CGTGTCACATGGACCGGTTTTCCCGGTAATCCGTATTTGGT (site CGTGTCACTAC)”: 1.31.
Regarding “CGTGTCGCATGGACCGGTTTTCCCGGTAATCCGTATTTGTG (site CGTGTCGCTCA)”, the “recombinant UMI read abundance (log10)” value is 0.701.
As for “CGTGTGTCATGGACCGGTTTTCCCGGTAATCCGTATTTGGA (site CGTGTGTCTTC)”, the figure is 1.86; as for “CGTTAGACATGGACCGGTTTTCCCGGTAATCCGTATTTGCG (site CGTTAGACTCA)”, 0.0494; as for “CGTTAGACATGGACCGGTTTTCCCGGTAATCCGTATTTGCG (site CGTTAGACTCC)”, 0.0162.
The same measure for “CGTTAGACATGGACCGGTTTTCCCGGTAATCCGTATTTGCG (site CGTTAGACTCG)”: 1.85; for “CGTTAGACATGGACCGGTTTTCCCGGTAATCCGTATTTGCG (site CGTTAGACTCT)”: 0.911; for “CGTTAGCCATGGACCGGTTTTCCCGGTAATCCGTATTTGAG (site CGTTAGACTCT)”: 0.00766.
As for “CGTTAGCCATGGACCGGTTTTCCCGGTAATCCGTATTTGAG (site CGTTAGCCTCT)”, the figure is 0.184.
As for “CGTTAGCCATGGACCGGTTTTCCCGGTAATCCGTATTTGAG (site CGTTAGGCTCT)”, the “recombinant UMI read abundance (log10)” value was 0.00758.
Turning to “CGTTAGCCATGGACCGGTTTTCCCGGTAATCCGTATTTGAG (site CGTTAGTCTCT)”, the “recombinant UMI read abundance (log10)” value was determined as 0.737.
As for “CGTTATACATGGACCGGTTTTCCCGGTAATCCGTATTTGAG (site CGTTAAACTCT)”, the figure is 0; as for “CGTTATACATGGACCGGTTTTCCCGGTAATCCGTATTTGAG (site CGTTACACTCT)”, 0.0313; as for “CGTTATACATGGACCGGTTTTCCCGGTAATCCGTATTTGAG (site CGTTAGACTCT)”, 0.0101.
The same measure for “CGTTATACATGGACCGGTTTTCCCGGTAATCCGTATTTGAG (site CGTTATACTCT)”: 1.25; for “CGTTATCCATGGACCGGTTTTCCCGGTAATCCGTATTTGTC (site CGTTATCCTGA)”: 1.46; for “CGTTCATCATGGACCGGTTTTCCCGGTAATCCGTATTTGCC (site CGATCATCTAG)”: 0.
As to “CGTTCATCATGGACCGGTTTTCCCGGTAATCCGTATTTGCC (site CGTTCATCTGG)”, the “recombinant UMI read abundance (log10)” value came out at 2.32.
The same measure for “CGTTCATCATGGACCGGTTTTCCCGGTAATCCGTATTTGTG (site CGTTCATCTCA)”: 0.00491; for “CGTTCCCCATGGACCGGTTTTCCCGGTAATCCGTATTTGTG (site CGTTCCCCTCA)”: 0.365.
In the case of “CGTTCGACATGGACCGGTTTTCCCGGTAATCCGTATTTGTT (site CGATCGACTAA)”, the “recombinant UMI read abundance (log10)” value was 0.0104.
Consider “CGTTCGACATGGACCGGTTTTCCCGGTAATCCGTATTTGTT (site CGCTCGACTAA)”, for which the “recombinant UMI read abundance (log10)” value is 0.0144.
The same measure for “CGTTCGACATGGACCGGTTTTCCCGGTAATCCGTATTTGTT (site CGGTCGACTAA)”: 0.0244.
As for “CGTTCGACATGGACCGGTTTTCCCGGTAATCCGTATTTGTT (site CGTTCGACTAA)”, the “recombinant UMI read abundance (log10)” value worked out at 0.0172.
As for “CGTTCGTCATGGACCGGTTTTCCCGGTAATCCGTATTTGCT (site CGATCATCTAG)”, the “recombinant UMI read abundance (log10)” value was 0.
The same measure for “CGTTCGTCATGGACCGGTTTTCCCGGTAATCCGTATTTGCT (site CGTTCGTCTAG)”: 1.95; for “CGTTGAACATGGACCGGTTTTCCCGGTAATCCGTATTTGTT (site CGTAGAACTAA)”: 0.00276.
As to “CGTTGAACATGGACCGGTTTTCCCGGTAATCCGTATTTGTT (site CGTCGAACTAA)”, the “recombinant UMI read abundance (log10)” value was found to be 0.0175.
Turning to “CGTTGAACATGGACCGGTTTTCCCGGTAATCCGTATTTGTT (site CGTGGAACTAA)”, the “recombinant UMI read abundance (log10)” value stood at 0.0247.
For “CGTTGAACATGGACCGGTTTTCCCGGTAATCCGTATTTGTT (site CGTTGAACTAA)”, the “recombinant UMI read abundance (log10)” value is 0.623.
As for “CGTTGTGCATGGACCGGTTTTCCCGGTAATCCGTATTTGAG (site CGTTGTGCTCT)”, the figure is 1.77.
In the case of “CGTTTGGCATGGACCGGTTTTCCCGGTAATCCGTATTTGCC (site CGTTTGGCTAG)”, the “recombinant UMI read abundance (log10)” value is 0.
As for “CGTTTGGCATGGACCGGTTTTCCCGGTAATCCGTATTTGCC (site CGTTTGGCTCG)”, the figure is 0.0176; as for “CGTTTGGCATGGACCGGTTTTCCCGGTAATCCGTATTTGCC (site CGTTTGGCTGG)”, 0.
The same measure for “CGTTTGGCATGGACCGGTTTTCCCGGTAATCCGTATTTGCC (site CGTTTGGCTTG)”: 0; for “CTAATAGCATGGACCGGTTTTCCCGGTAATCCGTATTTGAT (site CTAATAGCTAT)”: 2.21.
The same measure for “CTAATATCATGGACCGGTTTTCCCGGTAATCCGTATTTGTC (site CTAATATCTGA)”: 2.49.
On to “CTAATATCATGGACCGGTTTTCCCGGTAATCCGTATTTGTC (site CTAGTATCTGT)”, for which the “recombinant UMI read abundance (log10)” value turned out to be 1.1.
Regarding “CTAATCTCATGGACCGGTTTTCCCGGTAATCCGTATTTGAC (site CTAATCTCTGT)”, the “recombinant UMI read abundance (log10)” value amounted to 2.44.
As for “CTAATCTCATGGACCGGTTTTCCCGGTAATCCGTATTTGAC (site CTAGTATCTGT)”, the figure is 0; as for “CTAATTACATGGACCGGTTTTCCCGGTAATCCGTATTTGCA (site CTAATTACTTG)”, 2.07.
As for “CTACAAACATGGACCGGTTTTCCCGGTAATCCGTATTTGGA (site CTACAAACTTC)”, the figure is 1.28; as for “CTACAAACATGGACCGGTTTTCCCGGTAATCCGTATTTGGA (site CTACCAACTTC)”, 0.0174.
With “CTACAAACATGGACCGGTTTTCCCGGTAATCCGTATTTGGA (site CTACGAACTTC)”, the “recombinant UMI read abundance (log10)” value was 0.0102.
As for “CTACAAACATGGACCGGTTTTCCCGGTAATCCGTATTTGGA (site CTACTAACTTC)”, the figure is 0.313; as for “CTACCATCATGGACCGGTTTTCCCGGTAATCCGTATTTGGT (site CTACCATCTAC)”, 0.00462.
Turning to “CTACGAACATGGACCGGTTTTCCCGGTAATCCGTATTTGGA (site CTACAAACTTC)”, the “recombinant UMI read abundance (log10)” value stood at 1.46.
The same measure for “CTACGAACATGGACCGGTTTTCCCGGTAATCCGTATTTGGA (site CTACCAACTTC)”: 0.0142.
The same measure for “CTACGAACATGGACCGGTTTTCCCGGTAATCCGTATTTGGA (site CTACGAACTTC)”: 1.91; for “CTACGAACATGGACCGGTTTTCCCGGTAATCCGTATTTGGA (site CTACTAACTTC)”: 0.113.
As for “CTACTAACATGGACCGGTTTTCCCGGTAATCCGTATTTGGC (site CTACTAACTAC)”, the figure is 0.561; as for “CTACTAACATGGACCGGTTTTCCCGGTAATCCGTATTTGGC (site CTACTAACTCC)”, 0.31; as for “CTACTAACATGGACCGGTTTTCCCGGTAATCCGTATTTGGC (site CTACTAACTGC)”, 2.51.
With “CTACTAACATGGACCGGTTTTCCCGGTAATCCGTATTTGGC (site CTACTAACTTC)”, the “recombinant UMI read abundance (log10)” value came to 1.31.
The same measure for “CTACTAACATGGACCGGTTTTCCCGGTAATCCGTATTTGGG (site CTACTAACTAC)”: 0.0214.
The same measure for “CTACTAACATGGACCGGTTTTCCCGGTAATCCGTATTTGGG (site CTACTAACTCC)”: 0.54; for “CTACTAACATGGACCGGTTTTCCCGGTAATCCGTATTTGGG (site CTACTAACTGC)”: 0.0111.
As for “CTACTAACATGGACCGGTTTTCCCGGTAATCCGTATTTGGG (site CTACTAACTTC)”, the “recombinant UMI read abundance (log10)” value is 0.0179.
As for “CTACTATCATGGACCGGTTTTCCCGGTAATCCGTATTTGCC (site CTACTATCTGG)”, the figure is 2.95; as for “CTACTATCATGGACCGGTTTTCCCGGTAATCCGTATTTGCC (site CTAGTATCTGT)”, 0; as for “CTACTATCATGGACCGGTTTTCCCGGTAATCCGTATTTGGA (site CTACTAACTTC)”, 0.127.
In the case of “CTACTATCATGGACCGGTTTTCCCGGTAATCCGTATTTGGA (site CTACTACCTTC)”, the “recombinant UMI read abundance (log10)” value was 0.00618.
